Source: patent US4242453A, “Cultivating streptomyces to produce an esterase inhibitor” (Zaidan Hojin Biseibutsu Kagaku Kenkyu Kai, priority 1977, dated 1980)
Values after ≈ are worked out from the molar mass of the structure shown. “Also recorded” adds a separate entry of the source.

Columns and labels:
[1] = tested on: antibody-forming cells per spleen; assay: Effect on formation of humoral antibody (Jerne plaque technique, SRBC-immunized mice); assay type: in vivo, dd/Y mice; details: for Number of antibody-forming cells per spleen (± S.E.): 10^8 SRBC i.v., day 4
Experimental: Groups of dd/Y mice (5 female mice per group, 6-8 weeks old) were immunized with 10^8 red blood cells of sheep as the anitgen (in the form of a suspension in physiological saline solution) by intravenous injection to develop the immunity. At the same time, 1 mg, 250 mcg, 62.5 mcg or 15.6 mcg of esterastin (in the form of a suspension in 1% DMSO-saline) per mouse were intraperitoneally injected into the separate groups of mice, respectively. On the 4 days after the immunization, the mice treated were sacrificed, spleen was teased and the number of the antibody-forming cells present in each mouse spleen was enumerated according to the method of Jerne (see N. K. Jerne, A. A. Nordin and C. Henry: "The agar plaque technique for recognizing antibody-producing cells. Cell-bound Antibodies." ed. B. Amos and H. Koprowski pp. 109-122, Wister Institute Press. Philadelphia, 1963).

mice = assay: Acute toxicity in mice; assay type: in vivo; details: 250 mg/kg, intraperitoneal injection
Excerpt: As known substances which inhibit the esterase, there may be mentioned paradoxon and di-isopropyl fluorophosphate etc., which are highly toxic compounds. […] In these respects, it also can be confirmed that esterastin is a novel substance.

D.T.H. to SRBC in mice = assay: Effect on cell-mediated immunity (Delayed Type Hypersensitivity to SRBC, footpad swelling); assay type: in vivo, dd/Y mice; details: for Increase of footpad thickness: 24 hours after eliciting injection of 10^8 SRBC
Experimental: Effect of esterastin on the cellular immunity was tested according to a known Delayed Type Hypersensitivity (D.T.H.) technique (see P. H. Lagrange, G. B. Mackaness and T. E. Mille: "J. Exp. Med.", 139, 1529-1539 (1974)) using mice immunized with sheep red blood cells as the antigen.
Thus, 10^8 sheep red blood cells suspended in 0.05 ml of physiological saline solution were immunized by subcutaneous injection to the one side of dd/Y mice hind footpad (5 mice per group, female, 6-weeks old) to establish delayed-type hypersensitivity. At the same time as this immunization, 1 mg/mouse, 250 mcg/mouse, 62.5 mcg/mouse or 15.6 mcg/mouse of esterastin were intraperitoneally injected to each test mouse. Four days later, 10^8 sheep rod blood cells were injected subcutaneously into the other side of each test mouse footpad for elicitation of D.T.H. response. 24 Hours after the eliciting injection, the thickness (in mm) of the footpad was measured to evaluate the degree of the swelling in the footpad which received the eliciting injection of sheep rod blood cells. The extent of the swelling in the footpad serves as a measure to estimate the cellular immunity involved.

cultured cells = assay: Cell toxicity to cultured cells; assay type: cell-based; details: concentration of 10 mcg/ml
Solubility in solvents = assay type: physicochemical
esterase of pig pancreas = assay: Inhibition of esterase (decomposition of p-nitrophenyl acetate by crude lipase preparation); assay type: biochemical
Experimental: Thus, a commercially available, crude lipase preparation obtained from pig pancreas is dissolved to a concentration of 0.5% (by weight) in a 0.05 M phosphate buffered solution (pH 7.0) containing 0.2% "Triton X-100" (a trade name of an emulsifier consisting of a polyethyleneglycol alkylphenylether, a product of Rohm & Haas Co., U.S.A.). 0.03 ml of this lipase solution, 2.92 ml of 0.05 M phosphate buffered solution (pH 7.0) and 0.025 ml of a solution containing an esterastin sample to be assayed are mixed together, and the resulting mixture (2.975 ml) is warmed at 20° C. for 3 minutes and then admixed with 0.025 ml of a solution containing 10 mg/ml of p-nitrophenyl acetate in methanol to start the reaction of p-nitrophenyl acetate with lipase. After the reaction was effected at 20° C. for 30 minutes, absorbance (a) at 400 nm of the resulting reaction solution is measured. On the other hand, absorbance (b) at 400 nm of a control reaction solution obtained from the blank test using the 0.05 M phosphate buffered solution containing no esterastin is measured in the same way as above. Degree (%) of inhibition to esterase is calculated according to the following equation: [formula]

Structure (SMILES): CCCCCC=CCC=CCC(CC1OC(=O)C1CCCCCC)OC(=O)C(CC(N)=O)NC(C)=O (stereo not shown) [esterastin]
- Number of antibody-forming cells per spleen (± S.E.) ([1]; 1 mg per mouse i.p.): 45,300 ± 3,300
- effect on number of the antibody forming cells (in words) ([1]; 1 mg to 62.5 mcg to mice): remarkably reduces the number of the antibody forming cells
- Number of antibody-forming cells per spleen (± S.E.) ([1]; 15.6 mcg per mouse i.p.): 173,000 ± 19,600
- Number of antibody-forming cells per spleen (± S.E.) ([1]; 62.5 mcg per mouse i.p.): 55,000 ± 5,700
- Number of antibody-forming cells per spleen (± S.E.) ([1]; 250 mcg per mouse i.p.): 52,000 ± 2,300
- acute toxicity (mice): no toxicity was observed at all; also recorded: does not give any sympton of toxicity at all
- effect on development of D.T.H. (in words) (D.T.H. to SRBC in mice; 1 mg to 250 mcg to mice): remarkably suppresses the development of D.T.H.
- Increase of footpad thickness (D.T.H. to SRBC in mice; 1 mg/mouse i.p.): 3.8 × 0.1 mm
- Increase of footpad thickness (D.T.H. to SRBC in mice; 62.5 mcg/mouse i.p.): 6.2 × 0.1 mm
- Increase of footpad thickness (D.T.H. to SRBC in mice; 250 mcg/mouse i.p.): 3.0 × 0.1 mm
- cell toxicity to the cultured cells (cultured cells): no cell toxicity
- solubility in petroleum ether and hexane (Solubility in solvents; petroleum ether and hexane): sparingly soluble; also recorded: substantially insoluble
- solubility in organic solvents (Solubility in solvents; pyridine, dimethylsulfoxide, methanol, ethanol, acetone, ethyl acetate, butyl acetate, chloroform and benzene): readily soluble
- solubility in water (Solubility in solvents; water): sparingly soluble; also recorded: substantially insoluble
- IC50 (esterase of pig pancreas; p-nitrophenyl acetate as the substrate, read-out: concentration giving 50% inhibition of esterase): 0.041 nM
- ID50, dose giving 50% inhibition to esterase (esterase of pig pancreas; p-nitrophenyl acetate substrate, pH 7.0, 20° C., 30 minutes): 0.2 ng/mL (≈ 0.395 nM)
